Values quoted from earlier work as cited in US8481518B2, “Quaternary antimuscarinic compounds for the treatment of bladder diseases” (University of Rochester, priority 2003, dated 2013).
Where a name gives a salt, the structure may show the parent alone.

Experiments:
[1] = test system: muscarinic receptors
[2] = intravesical instillation two to three times daily
[3] = oral, 5 mg/kg four times/day
[4] = generally 25 mg twice daily, adults with urge incontinence
[5] = test system: all subtypes of human muscarinic receptors; settings: in vitro

COC(=O)C1=CC[C@@H]2CC[C@H]1N2C [AEME, Anhydroecgonine methyl ester]
cholinergic agonist activity ([1]; guinea pig tracheal rings and detrusor muscle in vitro): lacked cholinergic agonist activity | muscarinic antagonism ([1]; in vitro): potent non-competitive muscarinic antagonist

CCN(CC)CC#CCOC(=O)C(O)(c1ccccc1)C1CCCCC1 (stereo not drawn) [oxybutynin, (4-diethylamino)2-butynyl-cc-cyclohexyl-a-hydroxybenzeneacetate HCl]
patients dropping out due to inability to tolerate catheterization or difficulty retaining drug solution [2]: 21% | severe mouth dryness, subjects affected [3]: 84%

CC(CC(c1ccccc1)c1ccccc1)NC(C)(C)C (stereo not drawn) [terodiline]
effect on micturition frequency and incontinence episodes [4]: reduced micturition frequency and incontinence episodes

C[N+]1(C)[C@@H]2C[C@@H](OC(=O)C(O)(c3cccs3)c3cccs3)C[C@H]1[C@@H]1O[C@@H]12 [tiotropium bromide, 6β,7β,Epoxy-3α-[2-hydroxy-2,2-di(2-thienyl)acetoxy]-8,8-dimethyl-1αH,5αH-tropanium bromide]
antagonism at all subtypes of human muscarinic receptors [5]: 10-11 M
